Reference: patent US8669267B2, “Pharmaceutical, food or beverage having inhibitory activity on serotonin transporter” (Suntory Holdings Limited, priority 2008, dated 2014)

How the values were obtained:
[1] = system: uptake of serotonin in the brain; settings: cited from earlier work
monoamine oxidase A = biological target: T1, monoamine oxidase A (Homo sapiens, UniProt P21397); settings: cited from earlier work
T1 sequence (P21397 1-527): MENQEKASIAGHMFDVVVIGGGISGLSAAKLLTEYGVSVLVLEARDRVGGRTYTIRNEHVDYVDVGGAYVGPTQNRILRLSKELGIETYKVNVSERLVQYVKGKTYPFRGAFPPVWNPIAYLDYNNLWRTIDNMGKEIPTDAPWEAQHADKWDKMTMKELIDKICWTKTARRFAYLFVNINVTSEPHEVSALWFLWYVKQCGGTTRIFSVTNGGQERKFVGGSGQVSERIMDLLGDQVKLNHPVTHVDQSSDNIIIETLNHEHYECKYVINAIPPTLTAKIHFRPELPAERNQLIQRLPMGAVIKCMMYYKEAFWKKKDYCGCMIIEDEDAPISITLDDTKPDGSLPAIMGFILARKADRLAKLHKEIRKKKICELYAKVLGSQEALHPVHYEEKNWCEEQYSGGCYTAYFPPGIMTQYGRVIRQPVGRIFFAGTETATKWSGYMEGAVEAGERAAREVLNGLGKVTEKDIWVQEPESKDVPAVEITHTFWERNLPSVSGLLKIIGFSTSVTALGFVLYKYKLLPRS

rats = settings: forced-swimming tests using rats; cited from earlier work
[2] = system: C57BL/6N mice with motivation decreased through open-space swimming; test: Open-space swimming combined with Morris water maze test (escape-latency); assay type: in vivo
Experimental: The subjects were […] male C57BL/6N mice that had never been subjected to any experiment. At the beginning of the experiment, an average age of the subjects was about 12 weeks old, and an average weight of the subjects was 24.9 g (SD=3.30). The subjects were housed in an acrylic cage in an animal house in which the room temperature was 23° C. and the humidity was 50 to 60%. The inside of the animal house was set such that a light is alternately turned on and off in a 12-hour cycle (light period: from 8:00 AM to 8:00 PM). This experiment was carried out every day at the same time period during the light period. As feedstuff, a dry solid feed (Labo MR manufactured by Nosan Corporation) was fed. The supply of neither feedstuff nor water was limited.
The subjects were divided into 3 groups, and they were named noOS-Vehicle group (group of normal mice) (n=10), OS-(1S,3S)-MTCA-administered group (n=10), and OS-Vehicle group (group of mice having depression) (n=10), respectively.
A circular pool with an inner diameter of 95 cm and a depth of 35 cm was used. The pool was surrounded by white partitions each having a height of 120 cm and a width of 150 cm. […] The place where the escape platform was located was a central part of one of the four evenly-divided fan-shaped quadrants (Quadrant 1 to 4) of a circular water surface, and was determined for each subject. […]

γ-crystallin = settings: cited from earlier work
[3] = biological target: T2, human serotonin transporter (Homo sapiens, UniProt P31645); test: [3H] imipramine binding to cell homogenate of CHO cells expressing human serotonin transporter; settings: 100 μg/mL (1S,3S)-MTCA sample; 2 nM [3H] imipramine; 22° C. for 60 minutes; control = 100
T2 construct: expressed in transfected cells; host or cells: CHO cells, vector pRc/CMV, calcium phosphate transfection
T2 sequence (P31645 whole entry): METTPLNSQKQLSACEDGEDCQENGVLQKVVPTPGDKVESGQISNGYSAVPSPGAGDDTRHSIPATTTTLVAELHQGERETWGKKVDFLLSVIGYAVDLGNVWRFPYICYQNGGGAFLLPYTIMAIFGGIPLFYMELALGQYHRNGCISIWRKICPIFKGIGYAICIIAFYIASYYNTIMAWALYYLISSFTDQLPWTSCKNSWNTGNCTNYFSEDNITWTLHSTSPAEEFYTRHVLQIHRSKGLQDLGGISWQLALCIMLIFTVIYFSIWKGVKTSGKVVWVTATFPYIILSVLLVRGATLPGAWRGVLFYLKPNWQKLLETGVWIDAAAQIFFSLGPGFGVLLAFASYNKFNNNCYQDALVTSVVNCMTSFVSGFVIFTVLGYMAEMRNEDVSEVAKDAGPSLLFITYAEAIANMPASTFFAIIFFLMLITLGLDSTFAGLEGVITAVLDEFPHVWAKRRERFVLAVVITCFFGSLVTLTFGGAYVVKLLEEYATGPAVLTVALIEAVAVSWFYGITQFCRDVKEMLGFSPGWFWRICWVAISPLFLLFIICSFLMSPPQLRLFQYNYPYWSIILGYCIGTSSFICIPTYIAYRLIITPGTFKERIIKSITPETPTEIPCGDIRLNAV
Experimental: A commercially-available (1S,3S)-2,3,4,9-tetrahydro-1-methyl-1H-pyrido[3,4-b]-indole-3-carboxylic acid reagent (manufactured by Wako Pure Chemical Industries, Ltd.) was used as a subject substance ((1S,3S)-MTCA), and the inhibitory effect of (1S,3S)-MTCA on serotonin transporters was determined using a method described in Masahiko T, et al: European Journal of Pharmacology 368 277-283, 1999.
CHO cells were transfected with a secretory vector pRc/CMV, in which cDNA of a human serotonin transporter was incorporated, by a calcium phosphate method. […]
Then, the medium was removed by aspiration to prepare a cell homogenate. […] The concentration of protein in the resulting cell homogenate was measured by a Lowry method using bovine serum albumin (BSA) as a standard.
Thereafter, 25 μL, of (1S,3S)-MTCA solution dissolved in physiological saline (100 μg/mL) and the solution 2 (225 μL) comprising 2 nM [^3H] imipramine were added to a 96-hole microplate, and the cell homogenate (amount of protein: 15 μg) obtained in (1) was added to the microplate, followed by incubation at 22° C. for 60 minutes. […] Non-specific binding of [^3H] imipramine to the cell homogenate was determined using 10 μM imipramine. […]

Compound: COc1ccc2[nH]c3c(c2c1)CCNC3 [pinoline, 6-methoxy-1,2,3,4-tetrahydro-β-carboline]
- uptake of serotonin in the brain [1]: inhibits
- activity of monoamine oxidase A (monoamine oxidase A): inhibits
- immobility time (rats): reduces

Compound: C[C@@H]1N[C@H](C(=O)O)Cc2c1[nH]c1ccccc21 [(1S,3S)-MTCA, (1S,3S)-1-methyl-1,2,3,4-tetrahydro-β-carboline-3-carboxylic acid]
- average escape-latency (average of five trials) ([2]; Day 1 of administration, 20 mg/kg orally 60 minutes before training, open-space swimming treated mice, OS-Vehicle 52.6, noOS-Vehicle 44.1): 42.7 s
- time taken to reach the escape platform compared with the OS-Vehicle group ([2]; continuous administration up to Day 10, 20 mg/kg orally every day, FIG. 3): decreased significantly
- self-polymerization reaction of γ-crystallin (γ-crystallin; Fenton reaction using FeCl3): prevents
- photopolymerization reaction of γ-crystallin (γ-crystallin): prevents
- amount of [3H] imipramine that specifically bound to the cell homogenate (control was 100) [3]: 69
